# Test results taken from PubChem BioAssay (NCI).
#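 Cultured in 96-well plates, cells were exposed to test compound for 48 hours across five concentrations. Here, GI50 denotes the concentration required for 50% inhibition of growth. The concentration for full growth arrest is given as TGI.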
# Experiments:
# Assay in all cases: NCI tumour cell line growth inhibition, 48 h
# [1] = system: DMS 114 small cell lung
# [2] = system: DLD-1 colon
# [3] = system: RXF-631 renal
# [4] = system: LXFL 529 NSCLC
# [5] = system: KM20L2 colon
# [6] = system: HOP-18 NSCLC
# [7] = system: XF 498 CNS
# [8] = system: MDA-N
# [9] = system: P388 leukemia
# [10] = system: P388/ADR leukemia
# [11] = system: SN12K1 renal
smiles,measurement,setting,value
COC(=O)C1C=CCC2CCCCC21N1CCCC1 (stereo not given),TGI,[1],> 100 µM
same,TGI,[2],> 100 µM
same,TGI,[3],> 100 µM
same,TGI,[4],> 100 µM
same,TGI,[5],> 100 µM
same,TGI,[6],> 100 µM
COc1ccc(-c2ccc(CC(=O)O)cc2)cc1OC,TGI,[1],> 100 µM
same,TGI,[2],> 100 µM
same,TGI,[7],> 100 µM
same,TGI,[4],> 100 µM
same,TGI,[5],> 100 µM
O=C1CC23CCCCCCCCCCC2(C1)CC(=O)C3 (stereo not given),TGI,[1],77.6 µM
same,TGI,[2],> 100 µM
same,TGI,[7],49.2 µM
same,TGI,[4],> 100 µM
same,TGI,[6],92.7 µM
Cn1c(=O)oc2cc(C3CCC(=O)N3Cc3csc(-c4ccccc4)n3)ccc21 (stereo not given),TGI,[1],> 100 µM
same,TGI,[2],> 100 µM
same,TGI,[7],> 100 µM
same,TGI,[4],> 100 µM
same,TGI,[5],> 100 µM
same,TGI,[6],> 100 µM
N#C/C(=C\c1ccc2[nH]ccc2c1)C(=O)NCCCCNC(=O)/C(C#N)=C/c1ccc2[nH]ccc2c1,TGI,[1],> 100 µM
same,TGI,[8],> 10 µM
same,TGI,[2],> 100 µM
same,TGI,[7],> 100 µM
same,TGI,[4],> 100 µM
same,TGI,[5],> 100 µM
N/N=C(/Cc1ccccc1)NNO,TGI,[1],> 100 µM
same,TGI,[2],> 100 µM
same,TGI,[3],> 100 µM
same,TGI,[4],> 100 µM
same,TGI,[5],> 100 µM
same,TGI,[6],> 100 µM
CC(=O)N1[C@H](C(=O)O)CS[C@H]1c1ccc(F)cc1,TGI,[1],> 100 µM
same,TGI,[3],> 100 µM
same,TGI,[4],> 100 µM
same,TGI,[6],> 100 µM
O=C(CC1=Nc2nnc(CCCCCCCc3nnc4n3C(=O)C(CC(=O)c3ccc5ccccc5c3)=N4)n2C1=O)c1ccc2ccccc2c1,TGI,[1],> 100 µM
same,TGI,[2],> 100 µM
same,TGI,[7],> 100 µM
same,TGI,[3],> 100 µM
same,TGI,[4],> 100 µM
same,TGI,[5],> 100 µM
same,TGI,[6],> 100 µM
Oc1ccc(Cl)cc1C=Nc1cnc2ccccc2c1,TGI,[8],> 100 µM
Cc1cccc(C2NC(=O)c3ccccc3N2)c1 (stereo not given),TGI,[8],3.45 µM
CN(C)C(=S)/N=c1\ss/c(=N\C(=S)N(C)C)n1-c1cccc(Cl)c1,TGI,[1],> 100 µM
same,TGI,[5],> 100 µM
CN1CCCC2[C@@H]3CCC4c5nonc5CC[C@]4(C)C3CC[C@@]21C (stereo not given in full),TGI,[1],> 100 µM
same,TGI,[2],> 100 µM
same,TGI,[7],81.8 µM
same,TGI,[4],> 100 µM
same,TGI,[5],> 100 µM
same,TGI,[6],> 100 µM
Cc1ccc(C2=CC(=O)c3ccccc3C2=O)n1-c1ccccc1,TGI,[1],55.2 µM
same,TGI,[2],> 100 µM
same,TGI,[7],> 100 µM
same,TGI,[4],> 100 µM
same,TGI,[5],> 100 µM
same,TGI,[6],> 100 µM
C[C@@H]1C[C@@H]([C@H](O)CC2CC(=O)NC(=O)C2)C(=O)[C@@H](C)C1,TGI,[1],1.79 µM
same,TGI,[2],1.98 µM
same,TGI,[7],0.504 µM
same,TGI,[3],0.608 µM
same,TGI,[4],0.623 µM
same,TGI,[5],21.5 µM
N=C1CCCC1C(=S)SCCC(N)=O (stereo not given),TGI,[8],> 100 µM
[N-]=[N+]=CC(=O)CCC(N)C(=O)O (stereo not given),TGI,[9],21.9 µM
same,TGI,[1],95.5 µM
same,GI50,[8],2.26 µM
same,TGI,[8],> 250 µM
same,TGI,[2],> 170 µM
same,TGI,[7],230 µM
same,TGI,[5],> 250 µM
same,TGI,[10],30.4 µM
same,TGI,[6],> 250 µM
same,TGI,[11],141 µM
C1=CC(=P(c2ccccc2)(c2ccccc2)c2ccccc2)C=C1,TGI,[1],15.9 µM
same,TGI,[2],62.5 µM
same,TGI,[7],12.6 µM
same,TGI,[3],46.7 µM
same,TGI,[4],13 µM
same,TGI,[5],31.1 µM
O=c1c2cccnc2ncn1CCCN1CCCCC1,TGI,[1],> 100 µM
same,TGI,[2],> 100 µM
same,TGI,[7],> 100 µM
Cc1n[nH]c2ccccc2c1=O,TGI,[8],> 100 µM
CC1CCC2C(C)C(=O)OC2C2(C)C(=O)C=CC12 (stereo not given),TGI,[8],> 10 µM
O=C(c1ccccc1)C1N=NN(Cc2ccccc2[N+](=O)[O-])C1C(=O)c1ccccc1 (stereo not given),TGI,[1],> 100 µM
same,TGI,[2],> 100 µM
same,TGI,[4],> 100 µM
same,TGI,[5],> 100 µM
same,TGI,[6],> 100 µM
O=C(Nc1ccc(Cl)cc1C(F)(F)F)C(=O)Nn1c(=S)[nH]c2ccccc2c1=O,TGI,[8],> 100 µM
O=C1NC(O)n2c(=O)[nH]c(=O)n21 (stereo not given),TGI,[2],> 100 µM
same,TGI,[7],> 100 µM
same,TGI,[3],> 100 µM
same,TGI,[4],> 100 µM
same,TGI,[5],> 100 µM
same,TGI,[6],> 100 µM
c1cnc2c(c1)-n1cccc1C1(CCCCC1)NN2,TGI,[1],> 100 µM
same,TGI,[7],> 100 µM
same,TGI,[6],> 100 µM
CCOc1ccc(NC(=O)/C(CC(=O)c2c[n+](=O)c3ccccc3n2[O-])=N\OCCCc2ccccc2)cc1,TGI,[1],> 100 µM
same,TGI,[2],> 100 µM
same,TGI,[3],> 100 µM
same,TGI,[4],> 100 µM
same,TGI,[5],> 100 µM
c1ccc2c(c1)[nH]c1c2nc2ccccn21,TGI,[1],> 100 µM
same,TGI,[2],> 100 µM
same,TGI,[7],> 100 µM
same,TGI,[3],> 100 µM
same,TGI,[4],> 100 µM
same,TGI,[5],> 100 µM
same,TGI,[6],> 100 µM
Clc1ccccc1C(Nc1cnccn1)Nc1cnccn1,TGI,[8],> 100 µM
O=C1/C(=C/c2ccccc2)Oc2cc(O)ccc21,TGI,[8],> 100 µM
O=c1[nH]ccc(CNC23CC4CC(CC(C4)C2)C3)c1O,TGI,[2],> 100 µM
same,TGI,[7],> 100 µM
same,TGI,[4],> 100 µM
same,TGI,[5],> 100 µM
same,TGI,[6],> 100 µM
CC(C)(C)C#COC(=O)c1ccccc1,TGI,[1],> 100 µM
same,TGI,[2],> 100 µM
same,TGI,[4],> 100 µM
same,TGI,[5],> 100 µM
Cc1cc(=O)[nH]c(NNC(C#N)c2cccc([N+](=O)[O-])c2)n1 (stereo not given),TGI,[1],> 100 µM
same,TGI,[2],> 100 µM
same,TGI,[4],> 100 µM
same,TGI,[5],> 100 µM
same,TGI,[6],> 100 µM
COc1c2ccoc2nc2c(OC)c(OCC(O)C(C)(C)O)ccc12 (stereo not given),TGI,[8],> 100 µM
NCCO/C=C/C(N)C(=O)O (stereo not given),TGI,[8],> 100 µM
COC1(OC)C2(Cl)C3=CCCC=C3C1(Cl)C(Cl)=C2Cl,TGI,[1],49.9 µM
same,TGI,[2],> 100 µM
same,TGI,[7],50.2 µM
same,TGI,[3],30.3 µM
same,TGI,[4],> 100 µM
same,TGI,[5],60.4 µM
CC(C)Cc1cnc(CC(C)C)c(=O)[nH]1,TGI,[8],> 100 µM
Cc1cc(Cl)ccc1NC(=O)CCCC(=O)C1C/C(=N/O)CC/C1=N\O (stereo not given),TGI,[1],> 100 µM
same,TGI,[2],> 100 µM
same,TGI,[7],> 100 µM
same,TGI,[3],> 100 µM
same,TGI,[4],> 100 µM
same,TGI,[5],> 100 µM
same,TGI,[6],> 100 µM
Cc1cccc(C)c1NC(=O)C(=O)Cc1nc2ccccc2s1,TGI,[1],> 100 µM
same,TGI,[2],> 100 µM
same,TGI,[7],> 100 µM
same,TGI,[4],> 100 µM
same,TGI,[5],> 100 µM
CC(=O)[CH-]C(C)=O.CC(=O)[CH-]C(C)=O.[O-]c1ccccc1.[O-]c1ccccc1.[Ti+4],GI50,[1],> 100 µM
same,TGI,[1],> 100 µM
same,GI50,[2],> 100 µM
same,TGI,[2],> 100 µM
same,GI50,[7],> 100 µM
same,TGI,[7],> 100 µM
same,GI50,[4],> 100 µM
same,TGI,[4],> 100 µM
same,GI50,[5],> 100 µM
same,TGI,[5],> 100 µM
same,GI50,[6],> 100 µM
same,TGI,[6],> 100 µM
O=c1c(Cc2ccccc2)c(O)cc2n1CCC2,TGI,[1],> 100 µM
same,TGI,[2],> 100 µM
same,TGI,[7],> 100 µM
same,TGI,[3],> 100 µM
same,TGI,[4],> 100 µM
same,TGI,[5],> 100 µM
same,TGI,[6],> 100 µM
Cc1nnc2n1N=C(c1ccccc1)C(c1ccccc1)S2 (stereo not given),TGI,[1],52.4 µM
same,TGI,[2],> 100 µM
same,TGI,[7],> 100 µM
same,TGI,[4],> 100 µM
same,TGI,[5],76.3 µM
same,TGI,[6],> 100 µM
O=c1c(-c2ccc3c(c2)OCO3)coc2c3c(ccc12)OCO3,TGI,[8],> 100 µM
CCOc1c(Br)cc(Br)cc1C=C(C#N)C#N,TGI,[8],> 10 µM
